# PMC10467082, “Anti-Toxoplasma gondii Effects of Lipopeptide Derivatives of Lycosin-I” (Toxins, 2023)
# Entries after “also recorded” stand apart in the source; their conditions may differ. Square brackets hold non-standard residues; d marks the D form. Ends that are not written are not given here. Peptide text beside a SMILES is read from it. * marks the point of attachment. Lauroyl = CCCCCCCCCCCC(=O)*; Ahx = NCCCCCC(=O)O
# Legend:
# [1] = test system: T. gondii tachyzoites (RH strain); assay: Trypan blue assay of tachyzoite mortality (lipopeptide screening); format: cell-based, Toxoplasma gondii; conditions: 2.5, 5, 10, 20, 40 μM, 2 h at room temperature
# Description: (§1) To evaluate the difference of anti-T. gondii in the vitro between lipopeptides and Lycosin-I, we set up different concentration gradients, including 2.5 μM, 5 μM, 10 μM, 20 μM and 40 μM. The freshly obtained tachyzoites (3 × 10^6) were incubated with different concentrations of lipopeptides and PBS at room temperature for 2 h, then centrifuged at 3000 rbp for 8 min and the supernatant was discarded. The tachyzoite pellet was resuspended in PBS and mixed well. Then, the tachyzoite suspension was stained with 0.4% trypan blue staining solution for 5 min. Tachyzoite viability was observed under a light microscope (Motic China Group Co., Ltd., Xiamen, China), and five fields were randomly selected to calculate tachyzoite mortality. Three independent experiments were carried out.
# [2] = test system: human foreskin fibroblasts (HFFs); assay: CCK-8 cell viability assay on host cells; format: cell-based; conditions: CCK-8, HFFs, 24 h; for cytotoxicity to HFFs: comparison with Lycosin-I where stated; for IC50: 80-1.25 μM twofold dilution, three independent experiments, read-out: half-inhibitory concentration (IC50) on HFF viability
# Description: HFF cells were seeded in 96-well plates (1 × 10^4 cells per well). After 24 h of incubation, the previous complete medium was removed and replaced with the new complete medium containing different concentrations (80–1.25 μM, twofold serial dilution) of lipopeptides. Cells were treated with the complete medium in one well as the control group (each group was set up with three wells). After 24 h, 10 μL of CCK-8 reagent was added to each well and then incubated for 2 h. The absorbance value was measured at 450 nm using a microplate reader. Three independent experiments were carried out.
# T. gondii tachyzoites [3] = assay: Serum stability assay: serum incubation followed by trypan blue assay; format: in vitro ADME, Toxoplasma gondii; conditions: 100 μM in PBS containing 10% fetal bovine serum, 37 °C, 24 h; read-out tachyzoite mortality by trypan blue; three independent experiments
# Description: as §1
# A combination of serum incubation and a trypan blue assay was used to investigate whether or not the anti-Toxoplasma activity of lipopeptides and Lycosin-I was affected by serum. Briefly, stock solutions (1 mM) of Lycosin-I, L-C12 and L-an were diluted into 100 μM solutions in PBS containing 10% fetal bovine serum, and incubated at 37 °C for 24 h. Fresh tachyzoites were then treated with these solutions as described in the method in Section 5.3 for lipopeptide screening. Three independent experiments were carried out.
# T. gondii tachyzoites [4] = assay: Invasion assay of tachyzoites into HFFs; format: cell-based, Toxoplasma gondii; conditions: tachyzoites pretreated 2 h at 10 μM, HFFs infected MOI 5 for 2 h
# Description: The HFF cells were seeded in 24-well plates with 14 mm coverslips (1 × 10^5 cells per well) and incubated for 24 h. Fresh tachyzoites were obtained aseptically from the peritoneal fluid of the KM mouse acutely infected with T. gondii. The tachyzoites were treated with Lycosin-I (5 μM, 10 μM), L-C12 (5 μM, 10 μM), L-an (5 μM, 10 μM), SDZ (10 μM, positive control) and DMEM (negative control) for 2 h each. The HFFs were then infected with pre-treated tachyzoites at a multiplicity of infection (MOI) of 5 (tachyzoites/cells = 5). After 2 h, the previous complete medium was removed and the HFFs were washed twice with PBS to remove extracellular tachyzoites. They were then fixed with methanol for 5 min, and then stained with Giemsa for 15 min. The coverslips were examined under a light microscope. The invasion rate of tachyzoites was calculated by counting the number of cells invaded by tachyzoites and the total number of cells in 5 randomly selected fields. Three independent experiments were carried out.
# T. gondii tachyzoites [5] = format: cell-based, Toxoplasma gondii; conditions: 10 μM, 7 days, 500 tachyzoites per well, HFFs
# Description: The HFF cells were seeded in 6-well plates (1 × 10^6 cells per well) and incubated for 48–72 h. Cells in the 6-well plates were infected with 500 fresh tachyzoites per well for 2 h. The well in which cells were not infected with tachyzoites was considered the blank control group. Cells infected with tachyzoites were then treated with Lycosin-I (10 μM), L-C12 (10 μM), L-an (10 μM), SDZ (10 μM, positive control) and DMEM (negative control), respectively. After 7 days, HFFs in the plates were washed twice with PBS, fixed with methanol for 5 min, and then stained with crystal violet for 20 min. Six-well plates were washed with running water, dried, photographed, and then the number and area of plaques were counted using Photoshop version 2020. Three independent experiments were carried out.
# RH strain of T. gondii = format: in vivo, mouse; conditions: BALB/c mice, 1 × 10^3 tachyzoites i.p.; 4 mg/kg/day i.p. for 7 days; monitored 15 days; n = 8
# Description: To evaluate the anti-T. gondii effect of lipopeptides in vivo, we established a mouse model acutely infected with the RH strain of T. gondii. Forty 8-week-old female BALB/c mice weighing 17–19 g were randomly divided into 5 groups (n = 8 per group) and intraperitoneally injected with 1 × 10^3 tachyzoites per mouse. Lycosin-I, L-C12, L-an and sulfadiazine (SDZ) were dissolved in PBS, respectively. As these peptides are small linear peptides that are easily degraded by pepsin; mice were treated with these peptides via intraperitoneal injection (the same way that the mice were infected with T. gondii) rather than oral gavage. After 4 h of infection, mice were traperitoneally injected with 4 mg/kg of Lycosin-I, L-C12, L-an and sulfadiazine solution (once a day) for 7 days. Mice in the negative control group were treated with PBS. Mice in this condition observed daily and the time of death was recorded. The experiment was approved by the Ethics Committee of the School of Basic Medicine of Central South University (approval number: 2021-KT24).
# T. gondii tachyzoites [6] = assay: Intracellular proliferation assay of tachyzoites in HFFs; format: cell-based, Toxoplasma gondii; conditions: 10 μM, 24 h
# Description: HFFs were seeded in 24-well plates (1 × 10^5 cells per well) with 14 mm coverslips and incubated for 24 h. The HFFs were infected with fresh tachyzoites at a MOI of 5 for 2 h. The HFFs were then washed twice with PBS to remove extracellular tachyzoites and then treated with Lycosin-I (5 μM, 10 μM), L-C12 (5 μM, 10 μM), L-an (5 μM, 10 μM), SDZ (10 μM, positive control) and DMEM (negative control) for 24 h each. The HFFs were then washed twice with PBS, fixed with methanol for 5 min, and then stained with Giemsa for 15 min. The coverslips were observed under a light microscope to count the number of tachyzoites in 100 parasitophorous vacuoles (PVs). Three independent experiments were carried out.
# IFN-γ = format: in vivo, mouse; conditions: 4 mg/kg, after 5 days of treatment, qRT-PCR
# Description: (§2) Once T. gondii has infected a host, a number of inflammatory responses can be induced in the host to resist T. gondii invasion and proliferation. Therefore, we wanted to investigate the expression levels of anti-inflammatory and pro-inflammatory factors in the mice treated with lipopeptides. The expression levels of IFN-γ, TNF-α, IL-4 and IL-10 in the spleen tissues of mice after 5 days of treatment were determined via qRT-PCR (Figure 5). […] Compared to the PBS group, all treatment groups promoted the upregulation of the pro-inflammatory cytokines IFN-γ and TNF-α and the anti-inflammatory cytokine IL-4.
# (§3) Total RNA was extracted from each sample using Total RNA Isolation Kit (ENOVA BIO Co., Ltd., Wuhan, China), in accordance with the manufacturer’s instructions. Reverse transcription of RNA into cDNA was performed using the PerfectStart Uni RT&qPCR Kit (TransGen Biotech Co., Ltd., Beijing, China) in accordance with the instructions. cDNA was used as a template for qRT-PCR using PerfectStart Uni RT&qPCR Kit (TransGen Biotech Co., Ltd., Beijing, China). Primers, listed in Table 2, were designed and synthesized by a biotechnology company (Sangon Biotech Co., Ltd., Shanghai, China). Analysis was performed using the comparative threshold cycle method (2^−∆∆Ct). The gene expression levels of genes were normalized to those of housekeeping genes (β-actin or GAPDH).
# IL-4 = format: in vivo, mouse; conditions: 4 mg/kg, after 5 days of treatment, qRT-PCR
# Description: as §2, §3
# TNF-α = format: in vivo, mouse; conditions: 4 mg/kg, after 5 days of treatment, qRT-PCR
# Description: as §2, §3
# IL-10 = format: in vivo, mouse; conditions: 4 mg/kg, after 5 days of treatment, qRT-PCR
# Description: as §2, §3
# [7] = mouse serum (b5) / 10% serum, 24 h, mass spectrometry; cited from earlier work
# Excerpt: Cationic peptides with an α-helical structure found in venoms constitute a class of antimicrobial peptides (AMPs). In this class, amphiphilic peptides with net positive charges tend to adopt an α-helix structure when in contact with a hydrophilic/hydrophobic interface (such as the membrane of microorganisms), which helps the AMPs to insert into the cell membrane and disrupt the integrity of the cell membrane. Phospholipids on cell membranes are one of the targets of transmembrane peptides with an α -helical structure. […] The serum stability of Lycosin-I was in ...
compound,measurement,setting,value
NCCCCCC(=O)O [aminocaproic acid],anti-T. gondii activity in vitro (tachyzoite mortality),[1],no effect
KGWFKAMKSIAKFIAKEKLKEHL [Lycosin-I],cytotoxicity to HFFs,[2],concentration-dependent cytotoxicity
same,anti-T. gondii activity after serum treatment compared to control untreated with serum,T. gondii tachyzoites [3],significantly had reduced anti-T. gondii activity; also recorded: only slightly decreased
CC[C@H](C)[C@H](NC(=O)[C@H](Cc1ccccc1)NC(=O)[C@H](CCCCN)NC(=O)[C@H](C)NC(=O)[C@@H](NC(=O)[C@H](CO)NC(=O)[C@H](CCCCN)NC(=O)[C@H](CCSC)NC(=O)[C@H](C)NC(=O)[C@H](CCCCN)NC(=O)[C@H](Cc1ccccc1)NC(=O)[C@H](Cc1c[nH]c2ccccc12)NC(=O)CNC(=O)[C@H](CCCCN)NC(=O)CCCCCN)[C@@H](C)CC)C(=O)N[C@@H](C)C(=O)N[C@@H](CCCCN)C(=O)N[C@@H](CCC(=O)O)C(=O)N[C@@H](CCCCN)C(=O)N[C@@H](CC(C)C)C(=O)N[C@@H](CCCCN)C(=O)N[C@@H](CCC(=O)O)C(=O)N[C@@H](Cc1c[nH]cn1)C(=O)N[C@@H](CC(C)C)C(=O)O [L-an] (H-[Ahx]KGWFKAMKSIAKFIAKEKLKEHL-OH),IC50,[2],30.9 µM
same,cytotoxicity to HFFs,[2],no significant difference
same,anti-T. gondii activity after serum treatment compared to control untreated with serum,T. gondii tachyzoites [3],no significant difference; also recorded: retained substantial anti-T. gondii activity
CCCCCCCCCCCC(=O)N[C@@H](CCCCN)C(=O)NCC(=O)N[C@@H](Cc1c[nH]c2ccccc12)C(=O)N[C@@H](Cc1ccccc1)C(=O)N[C@@H](CCCCN)C(=O)N[C@@H](C)C(=O)N[C@@H](CCSC)C(=O)N[C@@H](CCCCN)C(=O)N[C@@H](CO)C(=O)N[C@H](C(=O)N[C@@H](C)C(=O)N[C@@H](CCCCN)C(=O)N[C@@H](Cc1ccccc1)C(=O)N[C@H](C(=O)N[C@@H](C)C(=O)N[C@@H](CCCCN)C(=O)N[C@@H](CCC(=O)O)C(=O)N[C@@H](CCCCN)C(=O)N[C@@H](CC(C)C)C(=O)N[C@@H](CCCCN)C(=O)N[C@@H](CCC(=O)O)C(=O)N[C@@H](Cc1c[nH]cn1)C(=O)N[C@@H](CC(C)C)C(=O)O)[C@@H](C)CC)[C@@H](C)CC [L-C12] (Lauroyl-KGWFKAMKSIAKFIAKEKLKEHL-OH),IC50,[2],15.6 µM
H-KGWFKAMKSIAKFIAKEKLKEHL-OH [Lycosin-I],inhibition of tachyzoite invasion compared with SDZ,T. gondii tachyzoites [4],more pronounced inhibition than SDZ
same,number and area of plaques in contrast with DMEM group,T. gondii tachyzoites [5],significantly reduced
same,plaques compared to DMEM group,T. gondii tachyzoites [5],reduced
same,survival time of mice compared to control group,RH strain of T. gondii,significantly prolonged the survival time
same,proliferation rate of tachyzoites in HFFs (negative group = 100%),T. gondii tachyzoites [6]; HFFs infected at MOI 5,below 55%
same,PVs with 16 tachyzoites,T. gondii tachyzoites [6]; proportion in 100 PVs,hard to see a PV with 16 tachyzoites
same,expression of IFN-γ in spleen compared to PBS group,IFN-γ,promoted the expression
same,expression of IL-4 in spleen compared to PBS group,IL-4,promoted IL-4 expression
same,expression of TNF-α in spleen compared to PBS group,TNF-α,promoted the expression
same,expression of IL-10 in spleen compared to PBS group,IL-10,inhibited the upregulation of IL-10
CCCCCCCCCCCC(=O)N[C@@H](CCCCN)C(=O)NCC(=O)N[C@@H](Cc1c[nH]c2ccccc12)C(=O)N[C@@H](Cc1ccccc1)C(=O)N[C@@H](CCCCN)C(=O)N[C@@H](C)C(=O)N[C@@H](CCSC)C(=O)N[C@@H](CCCCN)C(=O)N[C@@H](CO)C(=O)N[C@H](C(=O)N[C@@H](C)C(=O)N[C@@H](CCCCN)C(=O)N[C@@H](Cc1ccccc1)C(=O)N[C@H](C(=O)N[C@@H](C)C(=O)N[C@@H](CCCCN)C(=O)N[C@@H](CCC(=O)O)C(=O)N[C@@H](CCCCN)C(=O)N[C@@H](CC(C)C)C(=O)N[C@@H](CCCCN)C(=O)N[C@@H](CCC(=O)O)C(=O)N[C@@H](Cc1cnc[nH]1)C(=O)N[C@@H](CC(C)C)C(=O)O)[C@@H](C)CC)[C@@H](C)CC [L-C12] (Lauroyl-KGWFKAMKSIAKFIAKEKLKEHL-OH),cytotoxicity to HFFs,[2],higher cytotoxicity
same,anti-T. gondii activity after serum treatment compared to control untreated with serum,T. gondii tachyzoites [3],no significant difference; also recorded: retained substantial anti-T. gondii activity
same,degradation after incubation in serum,[7],not degraded
